Laboratory results taken from PubChem BioAssay AID2060502 (Molecular Pharmacology Branch, DTP, NCI, 2025).
“And” between values parts separate entries of the source, which are not always exact repeats. Equal entries are not always repeated.

System: 885724-159-R-J1-PDC complex spheroid viability
Assay: Anticancer human tumor 885724-159-R-J1-PDC patient-derived pancreatic adenocarcinoma cell line growth inhibition [GQUAD]
Conditions: for viability, T/C: stronger effect = lower value
Excerpt: DNA G-quadruplex Stabilizer Agents in Combinations in Complex Spheroids
A high-throughput screen of multi-cell type tumor spheroids was designed to identify active combinations of DNA G-quadruplex stabilizer agents and targeted small molecules. Complex spheroids include a stromal component modeled by human endothelial cells (HUVEC) and fibroblasts modeled by human mesenchymal stem cells (MSCs). The concentration ranges selected for each drug and investigational agent were based upon clinically achievable concentrations if the clinical Cmax of the agent was known.
Compounds. The drugs and investigational agents: pidnarulex (CX-5461; NSC782164), APTO-253 (NSC789042), BRACO-19 (NSC847499), peposertib (NSC802822), ceralasertib (NSC780249), elimusertib (NSC800525), camonsertib (NSC841442), AZD-1390 (NSC803789), olaparib (NSC753686), talazoparib (NSC767125), ART-558 (NSC835418), sotorasib (NSC818433), MRTX-1133 (NSC836407), SN-38 (NSC673596), topotecan (NSC609699), etoposide (NSC141540), doxorubicin (NSC123127), gemcitabine (NSC613327), 5-fluorouracil (NSC19893), paclitaxel (NSC125973), vemurafenib (NSC761431), panobinostat (NSC761190), R-306465 (JNJ-16241199; NSC773264), adavosertib (NSC754352), TP-3654 (NSC805149), carboplatin (NSC241240), KSQ-4279 (NSC840948), and staurosporine (NSC755774) were obtained from the National Cancer Institute (NCI) Developmental Therapeutics Program Chemical Repository (34). The FDA-approved anticancer drug set is available from the NCI Developmental Therapeutics Program. […] The stock solutions were prepared in dimethyl sulfoxide (DMSO, Sigma-Aldrich, St. Louis, MO, cat. D2650) at 800-fold the tested concentration and stored at -70 degrees C prior to their use. All drugs and investigational agents were tested over a range starting from a high concentration at or near the clinical Cmax and decreasing in half-log increments. If the clinical Cmax for an agent had not been determined, the highest concentration tested was 10 microM.
2.3 Cell Culture. All cells were maintained in an incubator at 37 degrees C and 5% CO2 with 95% humidity. The PDC lines were cultured according to standard operating procedures established by the NCI PDMR. All PDCs were thawed and cultured in Matrigel-coated flasks prepared with a working solution of 1X Ham's F-12 nutrient mix, without supplementation (Invitrogen, cat. 11765054), 100 U/mL penicillin-streptomycin (Invitrogen, cat. 15140122), and 2.5% Matrigel (Corning Inc., cat. 354248) for the first three passages. The 857933-349-R-J2-PDC line was cultured in 6C/Colon 1B media, which includes advanced DMEM/F-12 (Thermo Fisher Scientific, cat. 12634028), 10 mM HEPES (Thermo Fisher Scientific, cat. 15630080), 1X GlutaMAX supplement (Thermo Fisher Scientific, cat. 35050061), 0.1 mg/mL primocin (InvivoGen, cat. ant-pm-2), 10% defined fetal bovine serum, heat inactivated (HyClone Laboratories Inc., cat. SH30070.03HI), 50% L-WRN conditioned media (ATCC, cat. CRL-3276), 1.25 mM N-Acetyl-L-cysteine (Sigma-Aldrich, cat. A9165), 10 mM nicotinamide (Sigma-Aldrich, cat. N0636), 1X B-27 supplement (Thermo Fisher Scientific, cat. 17504044), 1X N-2 supplement (Thermo Fisher Scientific, cat. 17502048), 10 microM Y-27632 dihydrochloride (Tocris Bioscience, cat. 1254), and 50 ng/mL human EGF recombinant protein (Thermo Fisher Scientific, cat. PHG0311). The 485176-168-R4-J1-PDC line was cultured in Panc media, which includes all 6C/Colon 1B media components plus 100 ng/mL human FGF-10 (Thermo Fisher Scientific, cat. 100-26), 500 nM SB-431542 (Selleckchem, cat. S1067), and gastrin (Tocris, cat. 3006).
[…]
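Further: spheroids exposed to agents for seven days before readout.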
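Wherever viability, T/C is given: percent of vehicle control viability where 100% = DMSO wells.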

`O=C(c1cc(Cc2n[nH]c(=O)c3ccccc23)ccc1F)N1CCN(C(=O)C2CC2)CC1` was tested, and the viability, T/C (compound 0.0316 µM) was 99.2% and 89.1% and 108%, the viability, T/C (compound 0.1 µM) was 101% and 98.7% and 92.9% and the viability, T/C (compound 0.316 µM) was 95.6% and 92.5% and 106%. The viability, T/C (compound 1 µM) was 87% and 108% and 83.3%, the viability, T/C (compound 3.16 µM) was 90.5% and 89.9% and 99.1% and the viability, T/C (compound 10 µM) was 97.6% and 90.9% and 82.7%. The IC50 (curve of compound) was > 10 µM.
With `CN(C)c1ccc(Nc2c3ccc(NC(=O)CCN4CCCC4)cc3nc3cc(NC(=O)CCN4CCCC4)ccc23)cc1` the viability, T/C (compound 0.0316 µM) was 96.8% [middle of 12 runs], the viability, T/C (compound 0.1 µM) was 97.9% [middle of 12 runs] and the viability, T/C (compound 0.316 µM) was 92.3% [middle of 12 runs]. The viability, T/C (compound 1 µM) was 79.7% [middle of 12 runs], the viability, T/C (compound 3.16 µM) was 78.5% [middle of 12 runs] and the viability, T/C (compound 10 µM) was 84.1% [middle of 12 runs]. The IC50 (compound alone, run of 02/26/2024) was > 10 µM.
In the case of `C#Cc1c(F)ccc2cc(O)cc(-c3ncc4c(N5CC6CCC(C5)N6)nc(OCC56CCCN5CC(F)C6)nc4c3F)c12` (stereo not given), the viability, T/C (compound 0.0316 µM) is reported as 97.3% and 99.6% and 91.8%, the viability, T/C (compound 0.1 µM) is reported as 101% and 92.4% and 93% and the viability, T/C (compound 0.316 µM) is reported as 89.8% and 94.6% and 104%. For the same compound, the viability, T/C (compound 1 µM) was 90.2% and 88.2% and 81.5%, the viability, T/C (compound 3.16 µM) was 53.6% and 55.8% and 58.6% and the viability, T/C (compound 10 µM) was 30% and 25.7% and 22.7%. For the same compound, the IC50 (curve of compound) was 3.8 µM and 3.95 µM and 4.07 µM.
With `O=C(c1cc(Cc2n[nH]c(=O)c3ccccc23)ccc1F)N1CCN(C(=O)C2CC2)CC1` + Cc1cnc(CNC(=O)c2c(=O)c3ccc(N4CCCN(C)CC4)nc3n3c2sc2ccccc23)cn1 the IC50 (curve of first compound, second compound 0.0316 µM) was > 10 µM, the IC50 (curve of first compound, second compound 0.1 µM) was > 10 µM and the IC50 (curve of first compound, second compound 0.316 µM) was > 10 µM. The IC50 (curve of first compound, second compound 1 µM) was > 10 µM, the IC50 (curve of first compound, second compound 3.16 µM) was > 10 µM and the IC50 (curve of first compound, second compound 10 µM) was > 10 µM. It also gave a viability, T/C (second compound 0.0316 µM, first compound 0.0316 µM) of 97.6%, a viability, T/C (second compound 0.0316 µM, first compound 0.1 µM) of 96.7% and a viability, T/C (second compound 0.0316 µM, first compound 0.316 µM) of 98.6%. The viability, T/C (second compound 0.0316 µM, first compound 1 µM) was 99.2%, the viability, T/C (second compound 0.0316 µM, first compound 3.16 µM) was 87.3% and the viability, T/C (second compound 0.0316 µM, first compound 10 µM) was 90.8%. It also gave a viability, T/C (second compound 0.1 µM, first compound 0.0316 µM) of 115%, a viability, T/C (second compound 0.1 µM, first compound 0.1 µM) of 109% and a viability, T/C (second compound 0.1 µM, first compound 0.316 µM) of 105%. The viability, T/C (second compound 0.1 µM, first compound 1 µM) was 90.6%, the viability, T/C (second compound 0.1 µM, first compound 3.16 µM) was 84.6% and the viability, T/C (second compound 0.1 µM, first compound 10 µM) was 83.5%. The viability, T/C (second compound 0.316 µM, first compound 0.0316 µM) was 88%, the viability, T/C (second compound 0.316 µM, first compound 0.1 µM) was 93.7% and the viability, T/C (second compound 0.316 µM, first compound 0.316 µM) was 88.9%. The viability, T/C (second compound 0.316 µM, first compound 1 µM) was 85.5%, the viability, T/C (second compound 0.316 µM, first compound 3.16 µM) was 85.5% and the viability, T/C (second compound 0.316 µM, first compound 10 µM) was 77%. It also gave a viability, T/C (second compound 1 µM, first compound 0.0316 µM) of 87.8%, a viability, T/C (second compound 1 µM, first compound 0.1 µM) of 83.2% and a viability, T/C (second compound 1 µM, first compound 0.316 µM) of 78.8%. The viability, T/C (second compound 1 µM, first compound 1 µM) was 77.7%, the viability, T/C (second compound 1 µM, first compound 3.16 µM) was 87% and the viability, T/C (second compound 1 µM, first compound 10 µM) was 65.3%. It also gave a viability, T/C (second compound 3.16 µM, first compound 0.0316 µM) of 78.2%, a viability, T/C (second compound 3.16 µM, first compound 0.1 µM) of 80.3% and a viability, T/C (second compound 3.16 µM, first compound 0.316 µM) of 78.2%. The viability, T/C (second compound 3.16 µM, first compound 1 µM) was 74%, the viability, T/C (second compound 3.16 µM, first compound 3.16 µM) was 76.2% and the viability, T/C (second compound 3.16 µM, first compound 10 µM) was 57.4%. The viability, T/C (second compound 10 µM, first compound 0.0316 µM) was 71.7%, the viability, T/C (second compound 10 µM, first compound 0.1 µM) was 70.7% and the viability, T/C (second compound 10 µM, first compound 0.316 µM) was 70.9%. The viability, T/C (second compound 10 µM, first compound 1 µM) was 73.1%, the viability, T/C (second compound 10 µM, first compound 3.16 µM) was 64.8% and the viability, T/C (second compound 10 µM, first compound 10 µM) was 66.2%.
With `C=CC(=O)N1CCN(c2nc(=O)n(-c3c(C)ccnc3C(C)C)c3nc(-c4c(O)cccc4F)c(F)cc23)C(C)C1` (stereo not given) the viability, T/C (compound 0.0316 µM) was 96.5% and 93.7% and 94.2%, the viability, T/C (compound 0.1 µM) was 88.8% and 90% and 101% and the viability, T/C (compound 0.316 µM) was 98.2% and 110% (2×). For the same compound, the viability, T/C (compound 1 µM) was 117% and 108% and 105%, the viability, T/C (compound 3.16 µM) was 95.2% and 106% and 104% and the viability, T/C (compound 10 µM) was 87% and 89.9% and 96.3%. For the same compound, the IC50 (curve of compound) was > 10 µM.
